Results: patent US20230293560A1, “METHOD FOR MODULATING THE BLADDER MICROBIOME TO IMPROVE BLADDER HEALTH” (Kimberly-Clark Worldwide, Inc., priority 2020, published 2023)
“And” between values parts separate entries of the source, which are not always exact repeats. Equal values may be shown once.

Columns and labels:
[1] = test system: S. anginosus, KC18-1131-3B, Bladder (Sa-2); assay type: cell-based; details: Table 6, prebiotic 2%, one line per replicate; for Sa-2 MRS Δ / Sa-2 TSA Δ: change vs start, background growth in CHL media subtracted; for Sa-2 MRS Δ: MRS agar; for Sa-2 MRS end / Sa-2 TSA end: competition Sa-2 vs Lc-3, 48 hours; for Sa-2 MRS end: anaerobic, enumerated on MRS agar; for Sa-2 TSA end: enumerated on TSA
Protocol: (§1) Further testing was conducted to put the prebiotic compounds in competition assay testing, as further described in the test methods section herein. In the competition assay testing, each competition involved testing a single prebiotic compound with the commensal bacteria species of L. crispatus, KC18-1173-1, Bladder (“Lc-3”—Table 2) against the pathogenic bacterial species of S. anginosus, KC18-1131-3B, Bladder (“Sa-2”—Table 2).
(§2) • 1. An in house bacterial agar was created based on MRS agar (Kaplan and Hutkins, 2000) where the glucose is substituted for the prebiotic to be tested (either dextran MW ˜6,000, alpha-cyclodextrin, glucomannan, or pectin), bromocresol purple was included as a pH indicator. • 2. Bacteria were enumerated on each agar and color changes were recorded. Method for Competition Assay (Modified from “In Vitro Evaluation of Nutrients that Selectively Confer a Competitive Advantage to Lactobacilli” Vongsa et al, Beneficial Microbes 2016) • 1. Create 2% w/v stock of prebiotic or positive control (glucose/dextrose) as described above. • 2. From a freezer stock subculture the bacteria twice into De Man, Rogosa and Sharpe (MRS) broth (BD Difco, Becton Dickinson, Franklin Lakes, NJ), 37° C., stationary, anaerobic, overnight. • 3. From the last subculture, plate onto an MRS agar plate for L. crispatus KC18-1173-1 or blood agar for S. anginosus KC18-1131-3B, grow 37° C., stationary, anaerobic, overnight. • 4. Create a bacterial suspension by using a sterile tipped swab to transfer colonies of bacteria into a PBS suspension blank to a 2 MacFarland for both species. • 5. Enumerate the starting culture. • 6. Add 9.8 mL of prebiotic media into a 15 mL conical tube. • 7. Add 100 μL of the diluted bacteria to the media, incubate at 37° C., anaerobic, 48 hours. • 8. Harvest 100 μL from the tube containing the prebiotic and plate onto MRS agar and tryptic soy agar (TSA). • 9. Enumerate the bacteria on the MRS agar (both the L. crispatus and the S. anginosus). Small colonies are counted as S. anginosus and large colonies are counted as L. crispatus. • 10. Enumerate the bacteria on the TSA plate. […] Growth of the bacteria in the negative control (CHL media without prebiotic) was subtracted from the growth in the presence of the prebiotic or formulation.

[2] = test system: L. crispatus, KC18-1173-1, Bladder (Lc-3); assay: Competition assay, L. crispatus recovered; assay type: cell-based, Lactobacillus crispatus; details: Table 6, prebiotic 2%, one line per replicate; for Lc-3 MRS Δ: change vs start, background growth in CHL media subtracted, MRS agar; for Lc-3 MRS end: competition Sa-2 vs Lc-3, 48 hours, enumerated on MRS agar
Protocol: as §1, §2

[3] = test system: ratio of L. crispatus/S. anginosus; assay: Therapeutic effect protocol (competition assay); assay type: cell-based, Lactobacillus crispatus; Streptococcus anginosus; details: Table 6; prebiotic 2%; Lc-3 vs Sa-2
Description: As used herein, the term “therapeutic effect” refers to the ability of the compositions and formulations of the present disclosure to stimulate the growth of L. crispatus relative S. anginosus measured according to the therapeutic effect protocol described below. The therapeutic effect can be expressed as a ratio of L. crispatus to S. anginosus and is desirably greater than about 100, more preferably greater than about 500 and more desirably greater than about 1,000.
as §1, §2
Colonies of L. crispatus and S. anginosus were tested against in the competition method assay test method as described above. The therapeutic effect was calculated by comparing the colony forming units recovered after the competition assay of both L. crispatus and S. anginosus and calculating the ratio of L. crispatus/S. anginosus. A larger number indicates an increase in L. crispatus and/or a decrease in S. anginosus and a smaller number indicates a decrease in L. crispatus and/or an increase in S. anginosus.

[4] = test system: commensal and pathogenic bacterial species; assay: Prebiotic screening, summary in words across species; assay type: cell-based; details: commensal (L. crispatus, L. gasseri, L. jensenii) and pathogenic (S. anginosus, E. faecalis) species
Protocol: Most of the prebiotic compounds were initially tested in a high throughput assay screening process, described further in the Test Methods section herein, but three prebiotics (as noted in Table 3) were tested using a plate assay screening process as described in the Test Methods section herein. The prebiotics were tested against the commensal bacterial species of Lactobacillus crispatus, Lactobacillus gasseri, and Lactobacillus jensenii and against the pathogenic bacterial species of Streptococcus anginosus and Enterococcus faecalis as shown in Table 2. The bacterial species were taken from different sources, listed as culture collection, bladder, and vagina.
The results of the assay plate screening of the prebiotic compounds of Table 1 against the bacterial species of Table 2 is documented in Table 3 with the results being described by the following legend: • ++ if growth and fermentation was equal to or greater than the positive control • + if growth and fermentation was less than the positive control • […] if weak or no growth or fermentation • NT if not tested Some codes were not tested based on the use or non-use by the bacteria, as a way to efficiently move through the assay plate screening to the competition assay, described below.
• 1. Create a 2% w/v stock of prebiotic or positive control (glucose/dextrose) to be tested in API 50 CHL media (Biomerieux, Marcy-I'Étoile, France). API 50 CHL media contains minimal amounts of carbon for growth, and a bromocresol purple as a pH indicator of fermentation. Filter sterilize media with a […]. Store at 4-6° C. until use. • 2. Add 180 μL of media containing the prebiotic to a sterile, flat bottom 96-well microtiter plate (Corning, Corning, NY). • 3. From a freezer stock subculture the bacteria twice into De Man, Rogosa and Sharpe (MRS) broth (BD Difco, Becton Dickinson, Franklin Lakes, NJ), 37° C., stationary, anaerobic, overnight. • 4. From the last subculture, plate onto an MRS agar plate (Teknova, Hollister, CA) and grow 37° C., stationary, anaerobic, overnight. • 5. Create a bacterial suspension by using a sterile tipped swab to transfer colonies of bacteria into a PBS suspension blank to a 0.5 MacFarland (S. anginosus or E. faecalis) or a 1 MacFarland (Lactobacillus species) from the MRS agar plate. • 6. Enumerate the starting culture. • 7. Inoculate the media alone and media containing the prebiotic or positive control with 20 μL of the bacterial suspension. • 8. Place the plate into a spectrophotometer (Molecular Devices, San Jose, CA) and read the plate every 20 minutes for 24-48 hours. Read wavelengths (OD 430, OD 590, and OD 660). A color change to yellow caused by a drop in pH will be read by an increase in the OD430 value and a decrease in the OD590 value and is indicative of bacterial fermentation. An increase in OD660 values is indicative of an increase in turbidity and bacterial growth.
• 1. An in house bacterial agar was created based on MRS agar (Kaplan and Hutkins, 2000) where the glucose is substituted for the prebiotic to be tested (either dextran MW ˜6,000, alpha-cyclodextrin, glucomannan, or pectin), bromocresol purple was included as a pH indicator. • 2. Bacteria were enumerated on each agar and color changes were recorded. Method for Competition Assay (Modified from “In Vitro Evaluation of Nutrients that Selectively Confer a Competitive Advantage to Lactobacilli” Vongsa et al, Beneficial Microbes 2016) • 1. Create 2% w/v stock of prebiotic or positive control (glucose/dextrose) as described above. • 2. From a freezer stock subculture the bacteria twice into De Man, Rogosa and Sharpe (MRS) broth (BD Difco, Becton Dickinson, Franklin Lakes, NJ), 37° C., stationary, anaerobic, overnight. • 3. From the last subculture, plate onto an MRS agar plate for L. crispatus KC18-1173-1 or blood agar for S. anginosus KC18-1131-3B, grow 37° C., stationary, anaerobic, overnight. • 4. […]

Structure (SMILES)	Sa-2 MRS Δ [1]	Sa-2 TSA Δ [1]	Sa-2 MRS end [1]	Sa-2 TSA end [1]	Lc-3 MRS Δ [2]	Lc-3 MRS end [2]	Therapeutic Effect (ratio of L. crispatus/S. anginosus) [3]	overall outcome of the screening of Table 3, in words [4]
O=C(CO)[C@@H](O)[C@H](O)[C@H](O)CO[C@H]1O[C@H](CO)[C@@H](O)[C@H](O)[C@H]1O [Palatinose PST-PA]	−1.63 Log CFU/mL	−0.56 Log CFU/mL and −1.23 Log CFU/mL	5.06 Log CFU/mL	6.07 Log CFU/mL and 5.29 Log CFU/mL	3.25 Log CFU/mL and 1.94 Log CFU/mL	8.29 Log CFU/mL and 7.68 Log CFU/mL	1.66E+02 (2×) and 1.50E+02 (2×)	–
O=C(CO)[C@@H](O)[C@H](O)[C@H](O)CO[C@H]1O[C@H](CO)[C@@H](O)[C@H](O)[C@H]1O [Palatinose PST-PF]	−1.28 Log CFU/mL	−2.68 Log CFU/mL and −0.94 Log CFU/mL	5.41 Log CFU/mL	3.95 Log CFU/mL and 5.58 Log CFU/mL	3.02 Log CFU/mL and 2.16 Log CFU/mL	8.06 Log CFU/mL and 7.90 Log CFU/mL	1.29E+04 (2×) and 1.41E+04 (2×)	–
OC[C@@H](O)[C@@H](O[C@H]1O[C@H](CO)[C@@H](O)[C@H](O)[C@H]1O)[C@H](O)[C@@H](O)CO [Maltitol]	−0.12 Log CFU/mL and −0.37 Log CFU/mL	0.41 Log CFU/mL and 0.47 Log CFU/mL	6.58 Log CFU/mL and 6.48 Log CFU/mL	7.26 Log CFU/mL and 7.6 Log CFU/mL	0.35 Log CFU/mL and −0.08 Log CFU/mL	5.48 Log CFU/mL and 6.00 Log CFU/mL	1.66E−02 (2×) and 2.51E−02 (2×)	not able to provide growth for most, if not all, commensal and pathogenic bacterial species
O=CC[C@H](O)[C@H](O)CO [2-Deoxy-D-Ribose]	−2.41 Log CFU/mL and −1.26 Log CFU/mL	−0.63 Log CFU/mL and −0.23 Log CFU/mL	4.29 Log CFU/mL and 5.59 Log CFU/mL	6.22 Log CFU/mL and 6.90 Log CFU/mL	−5.22 Log CFU/mL and −1.90 Log CFU/mL	0 Log CFU/mL and 4.18 Log CFU/mL	6.03E−07 (2×) and 1.91E−03 (2×)	not able to provide growth for most, if not all, commensal and pathogenic bacterial species
O=C(CO)[C@@H](O)[C@H](O)[C@H](O)CO[C@H]1O[C@H](CO)[C@@H](O)[C@H](O)[C@H]1O [Palatinose Hydrate, 6-O-α-D-Glucopyranosyl-D-fructose]	−1.69 Log CFU/mL and −1.90 Log CFU/mL and −1.82 Log CFU/mL	−2.39 Log CFU/mL and −2.07 Log CFU/mL and −0.79 Log CFU/mL and −2.32 Log CFU/mL	5.16 Log CFU/mL and 4.47 Log CFU/mL and 4.88 Log CFU/mL	4.74 Log CFU/mL and 4.56 Log CFU/mL and 5.73 Log CFU/mL and 4.53 Log CFU/mL	2.93 Log CFU/mL and 2.26 Log CFU/mL and 3.24 Log CFU/mL and 1.90 Log CFU/mL	7.97 Log CFU/mL and 8.00 Log CFU/mL and 8.37 Log CFU/mL and 7.98 Log CFU/mL	1.74E+03 (2×) and 2.57E+03 (2×) and 3.29E+03 (2×) and 6.92E+03 (2×)	–
O=C(CO)[C@@H](O)[C@H](O)[C@H](O)CO[C@H]1O[C@H](CO)[C@@H](O)[C@H](O)[C@H]1O [Palatinose PST-N]	−2.08 Log CFU/mL and −1.53 Log CFU/mL	−2.11 Log CFU/mL and −1.03 Log CFU/mL	4.29 Log CFU/mL and 5.16 Log CFU/mL	4.52 Log CFU/mL and 5.49 Log CFU/mL	3.42 Log CFU/mL and 2.48 Log CFU/mL	8.46 Log CFU/mL and 8.22 Log CFU/mL	8.71E+03 (2×) and 5.80E+03 (2×)	–
O=C[C@@H](O)[C@H](O)[C@H](O)CO [D-Arabinose]	−0.27 Log CFU/mL and −0.47 Log CFU/mL	−0.46 Log CFU/mL and −0.32 Log CFU/mL	6.43 Log CFU/mL and 6.38 Log CFU/mL	6.39 Log CFU/mL and 6.81 Log CFU/mL	−0.13 Log CFU/mL and −0.23 Log CFU/mL	5.00 Log CFU/mL and 5.85 Log CFU/mL	4.07E−02 (2×) and 1.10E−01 (2×)	not able to provide growth for most, if not all, commensal and pathogenic bacterial species
